For the assay, the system named is T1, ZenR.
T1 construct: gene PXH69_30770
Conditions: read-out: Km,app; optimal conditions (55 °C, pH 8.0-9.0); 10-300 μM ZEN; no metal needed.

T1 sequence (A0AAW6LW22 entry or part of it): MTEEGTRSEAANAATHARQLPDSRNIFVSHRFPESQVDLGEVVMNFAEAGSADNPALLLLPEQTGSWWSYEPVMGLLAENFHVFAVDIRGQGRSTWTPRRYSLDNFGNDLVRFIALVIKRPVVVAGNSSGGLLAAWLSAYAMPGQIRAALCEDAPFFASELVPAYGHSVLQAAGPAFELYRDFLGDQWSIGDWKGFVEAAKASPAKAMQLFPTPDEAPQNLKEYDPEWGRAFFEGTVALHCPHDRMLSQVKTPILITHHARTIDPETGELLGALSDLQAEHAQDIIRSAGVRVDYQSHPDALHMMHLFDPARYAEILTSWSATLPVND

Take `C[C@H]1CCCC(=O)CCC/C=C/c2cc(O)cc(O)c2C(=O)O1` [Zearalenone]: the Km worked out at 21.14 ± 0.16 µM.

The term Km denotes the substrate concentration at which the rate is half of its maximum.
